Data taken from ChEMBL document CHEMBL1125860 (J Med Chem, 1991).
One block for each molecule: values may come before it. Activity calls are given as the source filed them. No cut-off for these calls is given here.

Assays:
[1] = molecular target: Aldo-keto reductase family 1 member B1 (Bos taurus) (UniProt P16116); experiment: In vitro % decrease of aldose reductase measured in isolated partially purified bovine lens preparations at 10e-7 M concentration
Rattus norvegicus [2] = species on record: Rattus norvegicus; experiment: (§1) In vitro inhibition of sorbitol accumulation was measured in rat sciatic nerves incubated in the presence of 50 mM glucose at 10e-5 M concentration; assay type: functional, Sciatic nerve
Rattus norvegicus [3] = experiment: In vivo inhibition of galactitol accumulation in sciatic nerves of rat at 144 mg/kg/day; assay type: functional; conditions: Sciatic nerve
Rattus norvegicus [4] = species on record: Rattus norvegicus; experiment: (§2) In vitro inhibition of sorbitol accumulation was measured in rat sciatic nerves incubated in the presence of 50 mM glucose at 10e-6 M concentration; assay type: functional, Sciatic nerve
Rattus norvegicus [5] = experiment: In vivo inhibition of galactitol accumulation in diaphragm of rat at 144 mg/kg/day; assay type: functional
Rattus norvegicus [6] = experiment: In vivo inhibition of galactitol accumulation in diaphragm of rat at 27 mg/kg/day; assay type: functional
Rattus norvegicus [7] = experiment: In vivo inhibition of galactitol accumulation in sciatic nerves of rat at 14 mg/kg/day; assay type: functional; conditions: Sciatic nerve
Rattus norvegicus [8] = experiment: In vivo inhibition of galactitol accumulation in sciatic nerves of rat at 27 mg/kg/day; assay type: functional; conditions: Sciatic nerve
[9] = molecular target: Aldo-keto reductase family 1 member B1 (Bos taurus) (UniProt P16116); experiment: In vitro % decrease of aldose reductase was measured in isolated partially purified bovine lens preparations at 10e-7 M concentration; Not active
Rattus norvegicus [10] = experiment: In vivo inhibition of galactitol accumulation in diaphragm of rat at 14 mg/kg/day; assay type: functional
Rattus norvegicus [11] = experiment: In vivo inhibition of galactitol accumulation in sciatic nerves of rat at 133 mg/kg/day; assay type: functional; conditions: Sciatic nerve
Rattus norvegicus [12] = experiment: In vivo inhibition of galactitol accumulation in diaphragm of rat at 133 mg/kg/day; assay type: functional
Rattus norvegicus [13] = experiment: In vivo inhibition of galactitol accumulation in sciatic nerves of rat at 43 mg/kg/day; Not significant; assay type: functional, organism-based; conditions: Sciatic nerve
Rattus norvegicus [14] = experiment: In vivo inhibition of galactitol accumulation in diaphragm of rat at 43 mg/kg/day; Not significant; assay type: functional, organism-based
Rattus norvegicus [15] = experiment: In vivo inhibition of galactitol accumulation in sciatic nerves of rat at 94 mg/kg/day; Not significant; assay type: functional, organism-based; conditions: Sciatic nerve
Rattus norvegicus [16] = experiment: In vivo inhibition of galactitol accumulation in diaphragm of rat at 94 mg/kg/day; assay type: functional
Rattus norvegicus [17] = experiment: In vivo inhibition of galactitol accumulation in diaphragm of rat at 15 mg/kg/day; assay type: functional
Rattus norvegicus [18] = experiment: In vivo inhibition of galactitol accumulation in diaphragm of rat at 25 mg/kg/day; assay type: functional
Rattus norvegicus [19] = experiment: In vivo inhibition of galactitol accumulation in sciatic nerves of rat at 25 mg/kg/day; assay type: functional; conditions: Sciatic nerve
Rattus norvegicus [20] = experiment: In vivo inhibition of galactitol accumulation in sciatic nerves of rat at 15 mg/kg/day; assay type: functional; conditions: Sciatic nerve
Rattus norvegicus [21] = experiment: In vivo inhibition of galactitol accumulation in diaphragm of rat at 5 mg/kg/day; assay type: functional
Rattus norvegicus [22] = experiment: In vivo inhibition of galactitol accumulation in sciatic nerves of rat at 10 mg/kg/day; assay type: functional; conditions: Sciatic nerve
Rattus norvegicus [23] = experiment: In vivo inhibition of galactitol accumulation in diaphragm of rat at 10 mg/kg/day; assay type: functional
Rattus norvegicus [24] = experiment: In vivo inhibition of galactitol accumulation in sciatic nerves of rat at 5 mg/kg/day; Not significant; assay type: functional, organism-based; conditions: Sciatic nerve
Rattus norvegicus [25] = experiment: In vivo inhibition of galactitol accumulation in sciatic nerves of rat at 24 mg/kg/day; assay type: functional; conditions: Sciatic nerve
Rattus norvegicus [26] = experiment: In vivo inhibition of galactitol accumulation in diaphragm of rat at 24 mg/kg/day; assay type: functional
Rattus norvegicus [27] = experiment: In vivo inhibition of galactitol accumulation in sciatic nerves of rat at 50 mg/kg/day; assay type: functional; conditions: Sciatic nerve
Rattus norvegicus [28] = experiment: In vivo inhibition of galactitol accumulation in diaphragm of rat at 50 mg/kg; assay type: functional
Rattus norvegicus [29] = experiment: In vivo inhibition of galactitol accumulation in sciatic nerves of rat at 112 mg/kg/day; Not significant; assay type: functional, organism-based; conditions: Sciatic nerve
Rattus norvegicus [30] = experiment: % reduction of aldose reductase inhibition was evaluated by measuring galactitol accumulation in diaphragm of rat at 112 mg/kg/day; Not significant; assay type: functional, organism-based
Rattus norvegicus [31] = experiment: In vivo inhibition of galactitol accumulation in sciatic nerves of rat at 19 mg/kg/day; assay type: functional; conditions: Sciatic nerve
Rattus norvegicus [32] = experiment: In vivo inhibition of galactitol accumulation in diaphragm of rat at 19 mg/kg/day; assay type: functional
Rattus norvegicus [33] = experiment: In vivo inhibition of galactitol accumulation in sciatic nerves of rat at 11 mg/kg/day; assay type: functional; conditions: Sciatic nerve
Rattus norvegicus [34] = experiment: In vivo inhibition of galactitol accumulation in diaphragm of rat at 11 mg/kg/day; assay type: functional
Rattus norvegicus [35] = experiment: In vivo inhibition of galactitol accumulation in sciatic nerves of rat at 22 mg/kg/day; assay type: functional; conditions: Sciatic nerve
Rattus norvegicus [36] = experiment: In vivo inhibition of galactitol accumulation in diaphragm of rat at 22 mg/kg/day; assay type: functional
Rattus norvegicus [37] = species on record: Rattus norvegicus; experiment: as §1; assay type: functional; conditions: Sciatic nerve
Rattus norvegicus [38] = experiment: In vivo inhibition of galactitol accumulation in diaphragm of rat at 4 mg/kg/day; assay type: functional
Rattus norvegicus [39] = experiment: Effective dose of aldose reductase was evaluated by measuring galactitol accumulation in sciatic nerves of rat at 4 mg/kg/day; assay type: functional; conditions: Sciatic nerve
Rattus norvegicus [40] = species on record: Rattus norvegicus; experiment: as §2; assay type: functional; conditions: Sciatic nerve
Rattus norvegicus [41] = experiment: In vivo inhibition of galactitol accumulation in sciatic nerves of rat at 4 mg/kg/day; assay type: functional; conditions: Sciatic nerve

SMILES: COc1ccc2c(C(=S)N(C)CC(=O)O)cc(Cc3ccccc3)cc2c1Br
- inhibition [1]: 84%
- Inhibition (Rattus norvegicus [2]): 78%
- inhibition in vivo at 144 mg/kg/day (Rattus norvegicus [3]): 46%
- Inhibition (Rattus norvegicus [4]): 48%
- inhibition in vivo at 144 mg/kg/day (Rattus norvegicus [5]): 84%

SMILES: COc1ccc2c(C(=S)N(C)CC(=O)O)cc(-c3ccccc3)cc2c1Br
- inhibition in vivo at 133 mg/kg/day (Rattus norvegicus [11]): 58%
- inhibition [1]: 81%
- inhibition in vivo at 133 mg/kg/day (Rattus norvegicus [12]): 85%
- Inhibition (Rattus norvegicus [2]): 68%
- Inhibition (Rattus norvegicus [4]): 30%

SMILES: CCOC(=O)N(CC(=O)O)C(=O)c1c(Br)ccc2c(C(F)(F)F)c(OC)ccc12
- inhibition (Rattus norvegicus [13]): inactive
- inhibition [1]: 76%
- inhibition (Rattus norvegicus [14]): inactive
- Inhibition (Rattus norvegicus [2]): 73%
- Inhibition (Rattus norvegicus [4]): 52%

SMILES: CCOC(=O)N(CC(=O)O)C(=O)c1c(F)ccc2c(C(F)(F)F)c(OC)ccc12
- inhibition [1]: 87%
- inhibition in vivo at 15 mg/kg/day (Rattus norvegicus [17]): 59%
- Inhibition (Rattus norvegicus [2]): 75%
- Inhibition (Rattus norvegicus [4]): 51%
- inhibition in vivo at 25 mg/kg/day (Rattus norvegicus [18]): 65%
- inhibition in vivo at 25 mg/kg/day (Rattus norvegicus [19]): 70%
- inhibition in vivo at 15 mg/kg/day (Rattus norvegicus [20]): 55%

SMILES: O=C(O)Cc1nn(Cc2nc3cc(C(F)(F)F)ccc3s2)c(=O)c2ccccc12 [ZOPOLRESTAT]
- inhibition [1]: 89%
- inhibition in vivo at 5 mg/kg/day (Rattus norvegicus [21]): 88%
- inhibition in vivo at 10 mg/kg/day (Rattus norvegicus [22]): 70%
- inhibition in vivo at 10 mg/kg/day (Rattus norvegicus [23]): 80%
- inhibition (Rattus norvegicus [24]): inactive

SMILES: COc1c(C)cc2c(C(=O)N(C)CC(=O)O)cccc2c1Br
- inhibition [1]: 20%
- inhibition (Rattus norvegicus [29]): inactive
- inhibition (Rattus norvegicus [30]): inactive
- inhibition in vivo at 19 mg/kg/day (Rattus norvegicus [31]): 77%
- inhibition in vivo at 19 mg/kg/day (Rattus norvegicus [32]): 63%

SMILES: COC(=O)CN(C)C(=O)c1c(F)ccc2c(C(F)(F)F)c(OC)ccc12
- inhibition in vivo at 27 mg/kg/day (Rattus norvegicus [6]): 48%
- inhibition in vivo at 27 mg/kg/day (Rattus norvegicus [8]): 48%
- inhibition [9]: inactive
- inhibition in vivo at 11 mg/kg/day (Rattus norvegicus [33]): 29%
- inhibition in vivo at 11 mg/kg/day (Rattus norvegicus [34]): 34%
- inhibition in vivo at 22 mg/kg/day (Rattus norvegicus [35]): 80%
- inhibition in vivo at 22 mg/kg/day (Rattus norvegicus [36]): 55%

Second part, led by results:

- inhibition [9]: inactive
SMILES: COc1ccc2c(C(=O)N(C)CC(N)=O)ccc(F)c2c1C(F)(F)F
- inhibition in vivo at 27 mg/kg/day (Rattus norvegicus [6]): 31%
- inhibition in vivo at 14 mg/kg/day (Rattus norvegicus [7]): 72%
- inhibition in vivo at 27 mg/kg/day (Rattus norvegicus [8]): 56%
- inhibition in vivo at 14 mg/kg/day (Rattus norvegicus [10]): 74%

- inhibition [1]: 23%
SMILES: CCCCc1ccc2c(C(F)(F)F)c(OC)ccc2c1C(=O)N(C)CC(=O)O
- inhibition (Rattus norvegicus [15]): inactive
- inhibition in vivo at 94 mg/kg/day (Rattus norvegicus [16]): 37%

- inhibition [1]: 67%
SMILES: COc1ccc2c(C(=O)N(C)CC(=O)O)c(OCC(F)(F)F)ccc2c1C(F)(F)F
- inhibition in vivo at 24 mg/kg/day (Rattus norvegicus [25]): 37%
- Inhibition (Rattus norvegicus [2]): 57%
- inhibition in vivo at 24 mg/kg/day (Rattus norvegicus [26]): 65%
- Inhibition (Rattus norvegicus [4]): 31%
- inhibition in vivo at 50 mg/kg/day (Rattus norvegicus [27]): 79%
- inhibition in vivo at 50 mg/kg (Rattus norvegicus [28]): 82%

- IC50 (Rattus norvegicus [37]): 2200 nM
- IC50 (Rattus norvegicus [40]): 2200 nM
SMILES: O=C1NC(=O)[C@@]2(CCOc3ccc(F)cc32)N1 [SORBINIL]
- Inhibition (Rattus norvegicus [2]): 96%
- inhibition in vivo at 4 mg/kg/day (Rattus norvegicus [38]): 69%
- ED50 (Rattus norvegicus [39]): 4.2 mg/kg
- Inhibition (Rattus norvegicus [4]): 27%
- inhibition in vivo at 4 mg/kg/day (Rattus norvegicus [41]): 55%
